Like-named read-outs stand apart in the source and are kept apart here.
Legend:
HUVECs = assay: High-content imaging cytotoxicity in HUVECs, 24 h; type: cell-based, human; conditions: Homo sapiens, HUVEC, 24 h, HUVEC, 24 hr
Experimental: Similar to the cultivation of iCell®-endothelial cells, HUVEC maintenance and experimentation are detailed elsewhere ([Iwata et al. 2017]). Briefly, HUVECs were thawed, seeded, and grown in T75 tissue culture flasks in Medium 199 with EGM™-2 BulletKits™. HUVECs were incubated at regular cell culture conditions, 37°C and 5% CO2 , and passaged every 2–3 d using TrypLE™ Express. To ensure adequate endothelial function, experiments were performed with cells between passages 1 and 5.
Cytotoxicity was assessed in parallel experiments. For iCell®-endothelial cells, 384-well plates were coated with a 30μg/mL fibronectin solution ( 10μL/well ) and incubated for 2 h at RT. iCell®-endothelial cells were dissociated with TrypLE™ Express and prepared into a solution to achieve 750 cells per well and 50μL of total volume. The fibronectin solution was removed from the 384-well plate, and cells were plated. For HUVECs, similar dissociation and the same cell density were used for plating with the exclusion of the fibronectin solution. Cells were incubated at 37°C and 5% CO2 until a monolayer was formed, typically 3–5 d. 2×PCB plates were created with the requisite maintenance medium. Before treatment, the medium in the wells was exchanged to 25μL/well of fresh maintenance medium. 2×PCB chemical solutions ( […] ) were added. After 24 h incubation at 37°C and 5% CO2 , cells were stained with Hoechst 33342, MitoTracker™ Orange, and calcein AM for 20 min before replacing the staining media with FluoroBright DMEM. Cell culture plates were imaged using the ImageXpress® Micro Confocal high-content imaging system (Molecular Devices). Images were acquired at 10× magnification with DAPI, TRITC, or FITC filter (Hoechst 33342, MitoTracker™, or calcein AM, respectively). The multiwavelength cell scoring applications module in MetaXpress™ (Molecular Devices) was used to analyze the images.
(§1) Phenotypic responses were quantitatively assessed using concentration–response modeling as detailed elsewhere ([Sirenko et al. 2017]). Briefly, phenotypic readouts were normalized to vehicle controls and fit to a four-parameter logistic model in R studio software (version 3.1.1; R Development Core Team). Following EPA guidance on dose–response modeling, a cutoff of one standard deviation across means of vehicle control (i.e., 0.5% vol/vol DMSO in cell culture media) wells was applied to determine the point-of-departure (POD) values ([U.S. EPA 2012]). In the absence of a concentration–response, the highest tested concentration (i.e., 100μM ) was assigned as “no observable adverse effect level.” The concentration–response assessment R script, as well as templates for vehicle and concentration–response data, are available as a supplement to Sirenko et al. ([2017]). The ability of physicochemical properties to predict differences in PODs were evaluated by multiregression and mixed-effects modeling using R.

[1] = system: iCell cardiomyocytes (human iPSC-derived cardiomyocytes); assay: High-content imaging of cytotoxicity and mitochondrial integrity in iPSC-CMs; type: cell-based; conditions: for minimal effective concentration: Homo sapiens, Cardiomyocyte, cardiomyocytes (cm); for effect on cell viability in iPSC-CMs: 0.01-100 μM, 90 min and 24 h
Experimental: Details on cardiomyocyte cell culture are described in detail elsewhere ([Grimm et al. 2015b]; [Sirenko et al. 2013a]). Briefly, tissue-culture treated 384 well plates were gelatinized with 25μL per well of 0.1% (w/v) gelatin in water for 2 h at 37°C and 5% CO2 . Individual vials of cells were thawed for 4 min in a water bath maintained at 37°C. Thawed cells were resuspended in 10ml plating medium containing 1:500 (vol/vol) penicillin/streptomycin solution at room temperature (RT). Live cell counts for each cell suspension were determined by trypan blue staining and cells were further diluted to provide final cell densities of 2×10^5 viable cells/ml. Thus, 5,000 cells suspended in 25μL media were transferred per well after the gelatin solution had been discarded. Cell culture plates were rested for 30 min at RT before they were incubated for 48 h at 37°C and 5% CO2 . Then, a media exchange with 30μL of fresh maintenance medium containing 1:500 (vol/vol) penicillin/streptomycin solution was performed, and cell media were subsequently changed every 48 h for 12 d. On the experiment day, the medium was completely exchanged with either 25μL (for Ca^2+ flux assay) or 40μL (for imaging) of fresh medium.
Cytotoxicity and effects on mitochondrial integrity of various PCBs and PCB metabolites in induced pluripotent stem cell-CMs (iPSC-CMs) were assessed using high-content cellular imaging in ImageXpress® Micro Confocal (Molecular Devices) as detailed in ([Grimm et al. 2015b]). Cells in 40μL maintenance media were treated with 10μL of 5× chemical solutions to provide test chemicals at final assay concentrations ranging from 0.01 to 100μM . […] Next, sample wells were treated with 50μL equilibrated 2× concentrated staining solution (maintenance medium containing Hoechst 33342, 4μg/mL and MitoTracker™ Orange, 0.4μM ). Microplates were then incubated for 15 min at 37°C and 5% CO2 before cells were washed twice with 30μL maintenance medium. All media were aspirated and discarded, and cells were fixed with […] of a 3.7% formaldehyde solution for 15 min at 37°C and 5% […] . Fixed cells were washed 3× with 25μL PBS before image acquisition using the DAPI (Hoechst 33342) and Cy3 (MitoTracker™ Orange) filters at 10× magnification on the ImageXpress® Micro Confocal high-content confocal microscope (Molecular Devices). The multiwavelength cell scoring applications module in MetaXpress® was used to analyze acquired images.
as §1

[2] = cyto, read-out: POD huvec.cyto.24hr
[3] = mito, read-out: POD huvec.mito.24hr
[4] = mitoint, read-out: POD huvec.mitoint.24hr
[5] = nma, read-out: POD huvec.nma.24hr
[6] = tc, read-out: POD huvec.tc.24hr
[7] = 1.5 h, cam, 90 min, read-out: POD cm.cam.90min
[8] = 1.5 h, mii, 90 min, read-out: POD cm.mii.90min
[9] = 1.5 h, mito, 90 min, read-out: POD cm.mito.90min
[10] = 1.5 h, tc, 90 min, read-out: POD cm.tc.90min
[11] = 24 h, cam, 24 hrs, read-out: POD cm.cam.24hrs
[12] = 24 h, mii, 24 hrs, read-out: POD cm.mii.24hrs
[13] = 24 h, mito, 24 hrs, read-out: POD cm.mito.24hrs
[14] = 24 h, tc, 24 hrs, read-out: POD cm.tc.24hrs

Row | Structure (SMILES) | minimal effective concentration (HUVECs; [2]) [µM] | minimal effective concentration (HUVECs; [3]) [µM] | minimal effective concentration (HUVECs; [4]) [µM] | minimal effective concentration (HUVECs; [5]) [µM] | minimal effective concentration (HUVECs; [6]) [µM] | minimal effective concentration [1, 7] [µM] | minimal effective concentration [1, 8] [µM] | minimal effective concentration [1, 9] [µM] | minimal effective concentration [1, 10] [µM] | minimal effective concentration [1, 11] [µM] | minimal effective concentration [1, 12] [µM] | minimal effective concentration [1, 13] [µM] | minimal effective concentration [1, 14] [µM] | effect on cell viability in iPSC-CMs [1]
1 | COc1cc(Cl)c(-c2cc(Cl)ccc2Cl)cc1Cl [4-OMe-PCB 52, 4-methoxy-2,2′,5,5′-tetrachlorobiphenyl] | 0.78 | 0.55 | 2.69 | 2.36 | 0.78 | 27.6 | 57.2 | 18.6 | 33 | 33 | 5.58 | 35.8 | 35 | –
2 | COc1ccc(-c2ccc(Cl)cc2)cc1 [4'-OMe-PCB 3, 4′-methoxy-4-chlorobiphenyl] | 8.6 | 5.97 | 32 | 1.41 | 8.6 | 100 | 100 | 100 | 100 | 82.9 | 100 | 100 | 100 | little effect on cell viability
3 | Clc1ccc(-c2cc(Cl)c(Cl)c(Cl)c2)cc1Cl [PCB 126, 3,3′,4,4′,5-pentachlorobiphenyl] | 5.33 | 100 | 100 | 100 | 5.33 | 100 | 100 | 100 | 100 | 7.03 | 100 | 7.54 | 6.48 | little effect on cell viability
4 | Oc1ccc(O)c(-c2ccc(Cl)cc2)c1 [2',5'-diOH-PCB 3, 4-Chloro-2′,5′-dihydroxybiphenyl] | 0.12 | 0.13 | 3.51 | 8.87 | 0.12 | 32.4 | 7.9 | 12.7 | 33.4 | 1.84 | 2.28 | 0.97 | 1.88 | –
